Source: ChEMBL document CHEMBL5244273, “Tuberculosis: An Overview of the Immunogenic Response, Disease Progression, and Medicinal Chemistry Efforts in the Last Decade toward the Development of Potential Drugs for Extensively Drug-Resistant Tuberculosis Strains” (J Med Chem, 2021)
In brackets after ≈: the same amount, converted by molar mass.

How the values were obtained:
[1] = test system: Mycobacterium tuberculosis; test: Antimycobacterial activity against Mycobacterium tuberculosis H37Rv incubated for 2 weeks; format: functional; details: 336 h
[2] = test system: Mycobacterium tuberculosis; test: Antimycobacterial activity against Mycobacterium tuberculosis H37Rv incubated for 3 weeks; format: functional; details: 504 h
[3] = test system: Mycobacterium tuberculosis; test: Antimycobacterial activity against Mycobacterium tuberculosis H37Rv incubated for 4 weeks; format: functional; details: 672 h
[4] = test system: Mycobacterium tuberculosis; test: Antimycobacterial activity against Mycobacterium tuberculosis H37Rv incubated for 5 weeks; format: functional; details: 840 h
[5] = test system: Mycobacterium tuberculosis; test: Antimycobacterial activity against non replicating Mycobacterium tuberculosis by broth dilution method; format: functional
[6] = test system: Mycobacterium tuberculosis; test: Antimycobacterial activity against Mycobacterium tuberculosis H37Rv ATCC 27294 by broth dilution method; format: functional
[7] = test system: J774; test: Cytotoxicity against mouse J774 cells incubated for 24 hrs by MTT assay; format: toxicity, cell-based; details: j774, 24 h
[8] = test system: Mycobacterium tuberculosis; test: Antitubercular activity against Mycobacterium tuberculosis H37Rv assessed as inhibition of bacterial growth by alamar blue assay; format: functional
[9] = test system: Mycobacterium tuberculosis; test: Antimycobacterial activity against Mycobacterium tuberculosis H37Rv; format: functional
[10] = test system: Mycobacterium tuberculosis; test: Antimycobacterial activity against Mycobacterium tuberculosis H37Rv assessed as inhibition of bacterial growth incubated for 5 days by alamar blue assay; format: functional; details: 120 h, time 5 day

SMILES	MIC [1] [µg/mL]	MIC [2] [µg/mL]	MIC [3] [µg/mL]	MIC [4] [µg/mL]	MIC [5] [µg/mL]	MIC [6] [µg/mL]	Activity [7] [µg/mL]	further results
CC(C)(C)n1cc(C(=O)O)c(=O)c2cc(F)c(-c3ccc(F)cc3F)cc21	4 (≈ 10.7 µM)	8 (≈ 21.3 µM)	8 (≈ 21.3 µM)	8 (≈ 21.3 µM)	–	–	–	–
CC(C)(C)n1cc(C(=O)O)c(=O)c2cc(F)c(Sc3ccccc3)cc21	8 (≈ 21.5 µM)	16 (≈ 43.1 µM)	16 (≈ 43.1 µM)	16 (≈ 43.1 µM)	–	–	–	–
COc1ccc(-c2cc3c(cc2F)c(=O)c(C(=O)O)cn3C(C)(C)C)cc1	0.5 (≈ 1.35 µM)	1 (≈ 2.71 µM)	1 (≈ 2.71 µM)	2 (≈ 5.41 µM)	–	–	–	–
CC(C)(C)n1cc(C(=O)O)c(=O)c2cc(F)c(-c3cccnc3)cc21	0.25 (≈ 0.735 µM)	0.25 (≈ 0.735 µM)	0.25 (≈ 0.735 µM)	0.25 (≈ 0.735 µM)	–	–	–	–
CC(C)(C)n1cc(C(=O)O)c(=O)c2cc(F)c(C#Cc3ccccc3)cc21	> 16	> 16	> 16	> 16	–	–	–	–
CC(C)(C)n1cc(C(=O)O)c(=O)c2cc(F)c(-c3ccc(O)cc3)cc21	0.25 (≈ 0.704 µM)	0.25 (≈ 0.704 µM)	0.25 (≈ 0.704 µM)	0.25 (≈ 0.704 µM)	–	–	–	–
Cc1cc(-c2cn(C[C@@]3(C)Cn4cc([N+](=O)[O-])nc4O3)nn2)ccc1F	–	–	–	–	4 (≈ 11.2 µM)	2 (≈ 5.58 µM)	> 40	–
CC(C)(C)n1cc(C(=O)O)c(=O)c2cc(F)c(-c3ccc(Cl)cc3)cc21	1 (≈ 2.68 µM)	1 (≈ 2.68 µM)	1 (≈ 2.68 µM)	1 (≈ 2.68 µM)	–	–	–	–
Cc1ccc(OCc2cn(C[C@@]3(C)Cn4cc([N+](=O)[O-])nc4O3)nn2)cc1	–	–	–	–	2 (≈ 5.4 µM)	1 (≈ 2.7 µM)	> 40	–
CCc1ccc(OCc2cn(C[C@@]3(C)Cn4cc([N+](=O)[O-])nc4O3)nn2)cc1	–	–	–	–	2 (≈ 5.2 µM)	2 (≈ 5.2 µM)	> 40	–
O=C(NNC(=O)c1cc(O)ccc1O)c1ccncc1	–	–	–	–	–	–	–	MIC [8]: 50 µg/mL (≈ 183 µM)
Cc1cccc(OCc2cn(C[C@@]3(C)Cn4cc([N+](=O)[O-])nc4O3)nn2)c1	–	–	–	–	0.5 (≈ 1.35 µM)	0.5 (≈ 1.35 µM)	> 40	–
COc1ccc(-c2cc3c(cc2F)c(=O)c(C(=O)O)cn3C(C)(C)C)cn1	0.25 (≈ 0.675 µM)	0.25 (≈ 0.675 µM)	0.5 (≈ 1.35 µM)	0.5 (≈ 1.35 µM)	–	–	–	–
Cc1ccc(OCCc2cn(C[C@@]3(C)Cn4cc([N+](=O)[O-])nc4O3)nn2)cc1	–	–	–	–	–	0.25 (≈ 0.65 µM)	> 40	MIC [9]: 0.25 µg/mL (≈ 0.65 µM)
C[C@]1(Cn2cc(-c3ccc(C(F)(F)F)cc3)nn2)Cn2cc([N+](=O)[O-])nc2O1	–	–	–	–	8 (≈ 20.3 µM)	2 (≈ 5.07 µM)	> 40	–
CC(C)(C)CCn1cc(C(=O)O)c(=O)c2cc(F)c(-c3ccccc3)cc21	4 (≈ 10.9 µM)	8 (≈ 21.8 µM)	8 (≈ 21.8 µM)	8 (≈ 21.8 µM)	–	–	–	–
C[C@]1(Cn2cc(-c3ccc(F)cc3)nn2)Cn2cc([N+](=O)[O-])nc2O1	–	–	–	–	2 (≈ 5.81 µM)	1 (≈ 2.9 µM)	> 40	–
CC(C)(C)n1cc(C(=O)O)c(=O)c2cc(F)c(-c3ccccc3)cc21	1 (≈ 2.95 µM)	2 (≈ 5.89 µM)	2 (≈ 5.89 µM)	2 (≈ 5.89 µM)	–	–	–	–
CC(Br)C(=O)NNC(=O)c1ccncc1 (stereo unspecified)	–	–	–	–	–	–	–	MIC [8]: 50 µg/mL (≈ 184 µM)
C[C@]1(Cn2cc(COc3cccc(F)c3)nn2)Cn2cc([N+](=O)[O-])nc2O1	–	–	–	–	2 (≈ 5.34 µM)	1 (≈ 2.67 µM)	> 40	–
C[C@]1(Cn2cc(-c3ccc(F)cc3F)nn2)Cn2cc([N+](=O)[O-])nc2O1	–	–	–	–	8 (≈ 22.1 µM)	1 (≈ 2.76 µM)	> 40	–
Nc1ccc(O)c(C(=O)NNC(=O)c2ccncc2)c1	–	–	–	–	–	–	–	MIC [8]: 50 µg/mL (≈ 184 µM)
O=C(NNC(=O)C1CCNC(Br)C1)c1ccncc1 (stereo unspecified)	–	–	–	–	–	–	–	MIC [8]: 25 µg/mL (≈ 76.4 µM)
C[C@]1(Cn2cc(-c3ccc(OC(F)(F)F)cc3)nn2)Cn2cc([N+](=O)[O-])nc2O1	–	–	–	–	4 (≈ 9.75 µM)	2 (≈ 4.87 µM)	> 40	–

SMILES	MIC [1] [µg/mL]	MIC [2] [µg/mL]	MIC [3] [µg/mL]	MIC [4] [µg/mL]	MIC [5] [µg/mL]	MIC [6] [µg/mL]	Activity [7] [µg/mL]	further results
Cc1ccccc1OCc1cn(C[C@@]2(C)Cn3cc([N+](=O)[O-])nc3O2)nn1	–	–	–	–	2 (≈ 5.4 µM)	0.5 (≈ 1.35 µM)	> 40	–
C[C@]1(Cn2cc(COc3ccccc3F)nn2)Cn2cc([N+](=O)[O-])nc2O1	–	–	–	–	0.5 (≈ 1.34 µM)	0.25 (≈ 0.668 µM)	> 40	–
C[C@]1(Cn2cc(COc3ccc(Br)cc3)nn2)Cn2cc([N+](=O)[O-])nc2O1	–	–	–	–	0.25 (≈ 0.574 µM)	0.12 (≈ 0.276 µM)	> 40	–
C[C@]1(Cn2cc(COc3cccc(Cl)c3)nn2)Cn2cc([N+](=O)[O-])nc2O1	–	–	–	–	1 (≈ 2.56 µM)	0.5 (≈ 1.28 µM)	> 40	–
C[C@]1(Cn2cc(-c3ccc(Oc4ccccc4)cc3)nn2)Cn2cc([N+](=O)[O-])nc2O1	–	–	–	–	2 (≈ 4.78 µM)	2 (≈ 4.78 µM)	> 40	–
CC(C)c1ccc(OCc2cn(C[C@@]3(C)Cn4cc([N+](=O)[O-])nc4O3)nn2)cc1	–	–	–	–	1 (≈ 2.51 µM)	0.5 (≈ 1.25 µM)	> 40	–
CC(C)(C)n1cc(C(=O)O)c(=O)c2cc(F)c(-c3cccc(Cl)c3)cc21	2 (≈ 5.35 µM)	2 (≈ 5.35 µM)	2 (≈ 5.35 µM)	4 (≈ 10.7 µM)	–	–	–	–
CC(C)c1ccc(-c2cc3c(cc2F)c(=O)c(C(=O)O)cn3C(C)(C)C)cc1	2 (≈ 5.24 µM)	4 (≈ 10.5 µM)	4 (≈ 10.5 µM)	4 (≈ 10.5 µM)	–	–	–	–
C[C@]1(Cn2cc(COc3ccc(OC(F)(F)F)cc3)nn2)Cn2cc([N+](=O)[O-])nc2O1	–	–	–	–	4 (≈ 9.08 µM)	2 (≈ 4.54 µM)	> 40	–
C[C@]1(Cn2cc(COc3ccc(C(F)(F)F)cc3)nn2)Cn2cc([N+](=O)[O-])nc2O1	–	–	–	–	2 (≈ 4.71 µM)	1 (≈ 2.36 µM)	> 40	–
CCCCCc1cn(C[C@@]2(C)Cn3cc([N+](=O)[O-])nc3O2)nn1	–	–	–	–	4 (≈ 12.5 µM)	2 (≈ 6.24 µM)	> 40	–
CC(C)(C)n1cc(C(=O)O)c(=O)c2cc(F)c(-c3ccccc3Cl)cc21	8 (≈ 21.4 µM)	8 (≈ 21.4 µM)	8 (≈ 21.4 µM)	8 (≈ 21.4 µM)	–	–	–	–
CC(C)(C)n1cc(C(=O)O)c(=O)c2cc(F)c(-c3ccc(-c4ccccc4)cc3)cc21	4 (≈ 9.63 µM)	4 (≈ 9.63 µM)	4 (≈ 9.63 µM)	4 (≈ 9.63 µM)	–	–	–	–
Cc1ccccc1-c1cc2c(cc1F)c(=O)c(C(=O)O)cn2C(C)(C)C	8 (≈ 22.6 µM)	8 (≈ 22.6 µM)	8 (≈ 22.6 µM)	16 (≈ 45.3 µM)	–	–	–	–
O=C(COc1ccccc1)NNC(=O)c1ccncc1	–	–	–	–	–	–	–	MIC [8]: 25 µg/mL (≈ 92.2 µM)
Cc1ccc(-c2cc3c(cc2F)c(=O)c(C(=O)O)cn3C(C)(C)C)cc1	1 (≈ 2.83 µM)	1 (≈ 2.83 µM)	1 (≈ 2.83 µM)	1 (≈ 2.83 µM)	–	–	–	–
CC(C)(C)OC(=O)Nc1ccc(-c2cc3c(cc2F)c(=O)c(C(=O)O)cn3C(C)(C)C)cc1	4 (≈ 8.8 µM)	4 (≈ 8.8 µM)	4 (≈ 8.8 µM)	4 (≈ 8.8 µM)	–	–	–	–
C[C@]1(Cn2cc(COc3ccccn3)nn2)Cn2cc([N+](=O)[O-])nc2O1	–	–	–	–	2 (≈ 5.6 µM)	1 (≈ 2.8 µM)	> 40	–
COc1cccc(-c2cc3c(cc2F)c(=O)c(C(=O)O)cn3C(C)(C)C)c1	1 (≈ 2.71 µM)	1 (≈ 2.71 µM)	1 (≈ 2.71 µM)	1 (≈ 2.71 µM)	–	–	–	–
CC(C)(C)n1cc(C(=O)O)c(=O)c2cc(F)c(Oc3ccccc3)cc21	8 (≈ 22.5 µM)	16 (≈ 45 µM)	16 (≈ 45 µM)	16 (≈ 45 µM)	–	–	–	–
CCC(C)(C)n1cc(C(=O)O)c(=O)c2cc(F)c(-c3ccccc3)cc21	8 (≈ 22.6 µM)	16 (≈ 45.3 µM)	16 (≈ 45.3 µM)	16 (≈ 45.3 µM)	–	–	–	–
COc1ccc(-c2cc3c(cc2F)c(=O)c(C(=O)O)cn3C2CC2)cn1	0.5 (≈ 1.41 µM)	0.5 (≈ 1.41 µM)	0.5 (≈ 1.41 µM)	0.5 (≈ 1.41 µM)	–	–	–	–
O=C(O)c1cn(C2CC2)c2cc(N3CCNCC3)c(F)cc2c1=O [CIPROFLOXACIN]	0.25 (≈ 0.754 µM)	0.25 (≈ 0.754 µM)	0.25 (≈ 0.754 µM)	0.25 (≈ 0.754 µM)	–	–	–	MIC [9]: 3.12 µg/mL (≈ 9.42 µM); MIC [10]: 3.12 µg/mL (≈ 9.42 µM); MIC [8]: 3.12 µg/mL (≈ 9.43 µM)
